Common to all, as to assay type: cell-based
Assay [1] deals with T1, hKV7.1/KCNE1 (KV7.1) (Homo sapiens, UniProt P51787).
T1 construct: gene KCNQ1; with KCNE1
Nature of the assay: two-electrode voltage clamp in Xenopus oocytes, V50 shift at […]. In general terms: Two-electrode voltage clamp holds a large cell at a set potential and records current.

Assay [2] deals with T1, hKV7.1/KCNE1 (KV7.1). Nature of the assay: two-electrode voltage clamp in Xenopus oocytes, V50 shift; mutagenesis (R228Q abolishes V50 shift); also active on KV7.[…] alone (EC50 […]).
For assay [3], the target named is T1, hKV7.1/KCNE1 (KV7.1). Nature of the assay: two-electrode voltage clamp in Xenopus oocytes, V50 shift.
Assay [4] concerns the target T1, hKV7.1/KCNE1 (KV7.1). Nature of the assay: two-electrode voltage clamp in Xenopus oocytes, V50 shift (current amplitude EC50 […]); site mutagenesis supported by MD.
Assay [5] has as its target T1, hKV7.1/KCNE1 (KV7.1). Kind of assay: two-electrode voltage clamp in Xenopus oocytes, V50 shift at […] (moderate effect).

T1 sequence (P51787 whole entry): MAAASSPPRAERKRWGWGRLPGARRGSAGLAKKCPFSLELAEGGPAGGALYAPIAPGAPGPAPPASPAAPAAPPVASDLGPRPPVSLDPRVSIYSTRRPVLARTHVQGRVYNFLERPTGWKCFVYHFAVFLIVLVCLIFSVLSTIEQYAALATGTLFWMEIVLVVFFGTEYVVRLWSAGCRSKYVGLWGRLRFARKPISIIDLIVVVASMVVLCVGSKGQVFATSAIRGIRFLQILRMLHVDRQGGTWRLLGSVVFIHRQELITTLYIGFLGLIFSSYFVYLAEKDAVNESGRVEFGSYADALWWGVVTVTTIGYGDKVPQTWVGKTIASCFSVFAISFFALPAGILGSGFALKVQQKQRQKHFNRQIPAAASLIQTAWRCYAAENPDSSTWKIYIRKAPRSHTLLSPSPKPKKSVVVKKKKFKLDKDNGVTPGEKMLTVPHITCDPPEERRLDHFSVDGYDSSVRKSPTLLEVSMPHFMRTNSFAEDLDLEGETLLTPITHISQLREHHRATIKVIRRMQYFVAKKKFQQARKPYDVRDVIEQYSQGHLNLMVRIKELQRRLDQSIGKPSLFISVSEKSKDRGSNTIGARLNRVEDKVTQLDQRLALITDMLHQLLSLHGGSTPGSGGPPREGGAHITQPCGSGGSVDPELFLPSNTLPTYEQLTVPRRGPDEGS

`CCCCC/C=C\C/C=C\C/C=C\C/C=C\CCCC(=O)N[C@H](CO)C(=O)O` [ARA-D-S]: the “ΔV50 (mV)” value on hKV7.1/KCNE1 (KV7.1) [1] is −29.0 mV. By EC50 is commonly meant the concentration giving half of the maximal effect. In the case of `CCCCC/C=C\C/C=C\C/C=C\C/C=C\CCCC(=O)N[C@@H](CO)C(=O)O` [ARA-S], at hKV7.1/KCNE1 (KV7.1) [2], the EC50 came out at 9 µM. In the case of `CC/C=C\C/C=C\C/C=C\C/C=C\C/C=C\C/C=C\CCC(=O)NC(CO)C(=O)O` (stereo not shown) [DOC-S], the EC50 at hKV7.1/KCNE1 (KV7.1) [3] amounted to 5 µM. For the compound `CCCCC/C=C\C/C=C\CCCCCCCC(=O)NC(CO)C(=O)O` (stereo not shown) [LIN-S], the EC50 at hKV7.1/KCNE1 (KV7.1) [4] turned out to be 12 µM.

`CCCCC/C=C\C/C=C\C/C=C\C/C=C\CCCC(=O)NCCCC(=O)O` [NAGABA]: at hKV7.1/KCNE1 (KV7.1) [5], the “ΔV50 (mV)” value is listed as −6.7 mV. For the compound `CCCCC/C=C\C/C=C\C/C=C\C/C=C\CCCC(=O)NCC(=O)O` [NAGly], the “ΔV50 (mV)” value at hKV7.1/KCNE1 (KV7.1) [1] is −25.5 mV. Regarding `CCCCC/C=C\C/C=C\C/C=C\C/C=C\CCCC(=O)N[C@@H](C)C(=O)O` [NALA], the “ΔV50 (mV)” value at hKV7.1/KCNE1 (KV7.1) [1] is listed as −22.2 mV.

Values taken from paper PMC9958262, “Endocannabinoids enhance hKV7.1/KCNE1 channel function and shorten the cardiac action potential and QT interval” (eBioMedicine, 2023).
